# Results published in PMC10879537 (Nature Communications, 2024).
# Several values for one entry are separate records, joined by “and”; a condition that tells them apart may be missing. Identical values can stand only once. Like-named read-outs stand apart in the source and are kept apart here.
# Key:
# [1] = system: SADS-CoV strain CN/GDWT/2017; assay: cells; type: cell-based, swine acute diarrhoea syndrome coronavirus (SADS-CoV)
# [2] = system: MERS-CoV pseudotyped virus; assay: microbe, parasite or virus in culture; type: cell-based; settings: for EC50: Middle East respiratory syndrome-related coronavirus, Huh-7, read-out: EC50 against MERS-CoV pseudotyped virus
# [3] = system: SARS-CoV-2 pseudotyped virus; assay: microbe, parasite or virus in culture; type: cell-based
# [4] = system: GX_P2V; assay: microbe, parasite or virus in culture; type: cell-based, Guangxi pangolin-CoV (GX_P2V); settings: for inhibition at 1.09691 µM / inhibition at 1.39794 µM / inhibition at 1.69897 µM / inhibition at 0.193125 µM / inhibition at 0.78 µM / inhibition at 0.39 µM / inhibition at 0.49485 µM / inhibition at 0.79588 µM: Vero C1008, 48 h, read-out: Percentage of Inhibition (%)
# [5] = system: SARS-CoV-2 trVLP
# [6] = in vitro; settings: African green monkey
# [7] = system: PEDV strain CV777; assay: microbe, parasite or virus in culture; type: cell-based, porcine epidemic diarrhea virus (PEDV); settings: for EC50: Porcine epidemic diarrhea virus, Huh-7, read-out: EC50 against PEDV
# [8] = system: SARS-CoV-2 trVLP; assay: microbe, parasite or virus in culture
# [9] = system: GX_P2V; assay: organism not typed; type: cell-based, Guangxi pangolin-CoV (GX_P2V); settings: for inhibition at 6.25 µM: Vero C1008, read-out: Inhibition against GX_P2V, full-time treatment
# [10] = in vitro; settings: human
# [11] = in vitro; settings: human, Caco-2
# [12] = system: SARS-CoV-2 trVLP; type: cell-based
# [13] = system: SARS-CoV pseudotyped virus; assay: microbe, parasite or virus in culture; type: cell-based; settings: for EC50: Severe acute respiratory syndrome coronavirus, read-out: EC50 against SARS-CoV pseudotyped virus
# [14] = system: SARS-CoV-2 live virus (SARS-CoV-2/WH-09/human/2020/CHN); assay: microbe, parasite or virus in culture; type: cell-based; settings: Severe acute respiratory syndrome coronavirus 2, Vero C1008, read-out: SARS-CoV-2 (Vero E6) EC50
# [15] = Huh-7, read-out: EC50 against SADS-CoV
# [16] = Severe acute respiratory syndrome coronavirus 2, read-out: EC50 SARS-CoV-2pseudotypedvirus
# [17] = Vero C1008, read-out: EC50 GX_P2V
# [18] = Vero C1008, read-out: EC50 against GX_P2V, repeated experiment
# [19] = Severe acute respiratory syndrome coronavirus 2, read-out: EC50 SARS-CoV-2 trVLP
# [20] = CC50, cytotoxicity to Huh 7 cells (Fig. 4B, SADS-CoV panel)
# [21] = Vero C1008, read-out: EC50 against GX_P2V
# [22] = Severe acute respiratory syndrome coronavirus 2, 24 h, read-out: EC50 against SARS-CoV-2 pseudotyped virus
# [23] = Severe acute respiratory syndrome coronavirus 2, Vero C1008, read-out: EC50 against diverse SARS-CoV-2-related viruses (summary statement)
Structure (SMILES),"EC50 [1, 15] [nM]",EC50 [2] [nM],"EC50 [3, 16] [nM]",inhibition at 1.09691 µM [4] [%],inhibition at 1.39794 µM [4] [%],"SI (SARS-CoV-2 trVLP, Caco 2-N) [5]",CC50 at 48 h [6] [nM],EC50 [7] [nM],"EC50 [8, 19] [nM]","Time of addition of anti-GX_P2V activity, Full-time [9]","Time of addition of anti-GX_P2V activity, Post-entry [9]","CC50 [10, 20] [nM]",CC50 at 48 h [11] [nM],"Time of addition of anti-SARS-CoV-2 trVLPs activity, Entry [12]","Time of addition of anti-SARS-CoV-2 trVLPs activity, Full-time [12]","Time of addition of anti-SARS-CoV-2 trVLPs activity, Post-entry [12]",EC50 [13] [nM],"Time of addition of anti-GX_P2V activity, Entry [9]",EC50 [14] [nM],CC50 [10] [nM],also measured
"COc1cc2c(cc1OC)[C@@H](Cc1ccc(Oc3cc(C[C@@H]4c5cc(OC)c(OC)cc5CCN4C)ccc3O)cc1)N(C)CC2 [Dauricine, dauricine]",840,2130,6580,10.1,95.2,> 17.61,> 50000,1700,2840,94.280 and 92.940 and 93.040,24.420 and 36.380 and 19.300,> 12500,> 50000,75.941 and 76.217 and 74.799,87.622 and 86.812 and 85.889,74.686 and 90.971 and 75.807,2630,,,,"Percentage of Inhibition (%) [1]: 99.922%; inhibition at 1.69897 µM [4]: 100%; EC50 [4, 17]: 15700 nM; EC50 [4, 18]: 13100 nM; Percentage of Inhibition (%) [7]: 99.987%; Stage of the viral life cycle affected (time-of-addition) [9]: superior inhibitory activity during the entry stage compared with the post-entry stage; inhibition at 6.25 µM [9]: ~100%; CC50 at 48 h [10]: > 25000 nM"
"COc1cc2c(cc1O)[C@@H](Cc1ccc(O)c(Oc3ccc(C[C@@H]4c5cc(OC)c(OC)cc5CCN4C)cc3)c1)N(C)CC2 [Daurisoline, daurisoline]",2800,2460,8480,,100,> 35.21,> 50000,820,,99.980,90.220 and 88.260 and 87.780,,> 50000,21.082 and 20.351 and 25.494,69.364 and 69.350 and 65.328,59.015 and 61.872 and 61.323,2760,73.500 and 68.250 and 70.810,12500,> 12500,"inhibition at 0.193125 µM [4]: 6.47%; inhibition at 0.78 µM [4]: 63%; inhibition at 1.69897 µM [4]: 100%; EC50 [4, 21]: ~14100 nM; EC50 [4, 18]: 10600 nM; EC50 ([8]; Severe acute respiratory syndrome coronavirus 2, read-out: EC50 against SARS-CoV-2 trVLP): 1420 nM; inhibition at 6.25 µM [9]: ~100%"
"COc1ccc2cc1Oc1ccc(cc1)C[C@H]1c3c(cc4c(c3Oc3cc5c(cc3OC)CCN(C)[C@@H]5C2)OCO4)CCN1C [Cepharanthine, reference compound]",1030,2190,,100,,> 31.25,> 12500,200,1600,99.145 and 99.093 and 99.139,88.656 and 88.646 and 88.662,> 12500,> 50000,63.189 and 64.430 and 67.089,95.064 and 95.621 and 95.146,74.095 and 72.335 and 71.421,1370,88.370 and 86.873 and 86.696,2190,11000,"EC50 ([1]; Huh-7, read-out: EC50 SADS): 400 nM; Percentage of Inhibition (%) [2]: 24.735%; EC50 [3, 22]: 740 nM; EC50 [4, 23]: < 2000 nM; inhibition at 0.193125 µM [4]: 46.4%; inhibition at 0.39 µM [4]: 20.4%; inhibition at 0.49485 µM [4]: 77.8%; inhibition at 0.79588 µM [4]: 96.7%; EC50 [4, 21]: 1780 nM; Percentage of Inhibition (%) [7]: 99.988%; Percentage of Inhibition (%) [13]: 99.382% and 89.647%"
"COc1ccc2cc1Oc1ccc(cc1)C[C@H]1c3cc(c(OC)cc3CCN1C)Oc1c(O)c(OC)cc3c1[C@H](C2)N(C)CC3 [Fangchinoline, fangchinoline]",2230,4470,,100,,24.05,> 12500,200,1930,99.636 and 99.587 and 99.561,96.715 and 95.065 and 93.301,> 12500,46400,64.788 and 62.324 and 70.383,98.422 and 98.513 and 99.025,80.036 and 76.348 and 75.577,1730,98.527 and 98.293 and 98.495,5010,12400,"Percentage of Inhibition (%), SARS-CoV-2 pseudotyped virus [3]: 100%; EC50 [3, 22]: 1160 nM; EC50 [4, 23]: < 2000 nM; inhibition at 0.39 µM [4]: 21%; inhibition at 0.49485 µM [4]: 97.5%; inhibition at 0.78 µM [4]: 14%; inhibition at 0.79588 µM [4]: 95.4%; EC50 [4, 17]: 1970 nM; Percentage of Inhibition (%) [5]: 100%"
"COc1ccc2cc1Oc1ccc(cc1)C[C@H]1c3cc(c(OC)cc3CCN1C)Oc1c(OC)c(OC)cc3c1[C@H](C2)N(C)CC3 [Tetrandrine, reference compound]",2190,2170,3200,100,100,> 17.86,21900,440,2800,99.968 and 99.974 and 99.976,99.868 and 99.847 and 99.852,> 12500,> 50000,36.455 and 44.889 and 48.206,99.957 and 99.767 and 99.878,89.364 and 97.266 and 89.859,3040,99.931 and 99.920,3130,11700,"Percentage of Inhibition (%) [2]: 99.674% and 99.511%; inhibition at 0.49485 µM [4]: 11.3%; inhibition at 0.79588 µM [4]: 70.2%; inhibition at 1.69897 µM [4]: 100%; EC50 [4, 17]: 5210 nM; CC50 [6]: 21900 nM; Percentage of Inhibition (%) [13]: 99.687%"
